Experimental data published in patent US8455450B2, “Methods for obtaining a therapeutically effective amount of hematopoietic precursor cells and long term engraftment thereof” (Biokine Therapeutics Ltd., priority 2006, dated 2013).
Like-named read-outs stand apart in the source and are kept apart here.

Columns and labels:
[1] = system: PC3 cells; experiment: MIP3α secretion by PC3 prostate cells (ELISA); assay type: cell-based
Text: (§1) A PC3 prostate cell line that overexpresses high levels of CXCR4 was generated. […] FIG. 1A presents FACS histograms of PC3 cells (left panel) and a single cell clone with stable overexpression of CXCR4, GFP and luc genes (PC3-CXCR4.5, right panel) that were stained for the control (IgG2a-PE, full histograms) and CXCR4 (IgG2a-12G5, empty histograms) antibodies.
(§2) In this example, regulation of the chemokine MIP3α (macrophage inflammatory protein 3α) was examined. […] In FIG. 1B, PC3 (left panel) and PC3-CXCR4.5 (right panel) cells were stimulated with the indicated concentrations of CXCL12 for 48 hours and MIP3α secretion was assessed by ELISA. The results represent the average of triplicates±STDEV.
(§3) The effects of the CXCR4 antagonist AMD3100 and of 4F-benzoyl-TN14003 (4FB-TN14003), hitherto known as a CXCR4 antagonist, on MIP3α secretion were further tested. […] In FIG. 10, CXCR4 signaling in PC3 (left panel) and PC3-CXCR4.5 (right panel) cells was inhibited with anti-CXCL12 antibodies (αCXCL12) and Pertussis toxin (PTX) treatments alone or in combination with CXCL12, as indicated. Secretion of MIP3α was assessed by ELISA. The results represent the average of triplicates±STDEV.

[2] = system: PC3-CXCR4.5 cells; experiment: MIP3α secretion by CXCR4-overexpressing PC3-CXCR4.5 cells (ELISA); assay type: cell-based
Text: as §1, §2, §3
Spontaneous secretion of MIP3α is CXCL12 and PTX independent in these cells.

[3] = system: white-blood-cells (WBC); assay type: in vivo; conditions: 5 mg/kg s.c. 4F-benzoyl-TN14003 or AMD3100, 2 h, G-CSF 2.5 μg s.c. twice a day for 4 days, combination 18 h after last G-CSF
[4] = system: hematopoietic stem cells (HSCs); experiment: Hematopoietic stem cell assay: transplantation of mobilized blood cells into lethally irradiated mice, survival; assay type: in vivo, C57BL/6 mice; conditions: 2 h
Protocol: C57BL/6 mice, served as donors, were injected with 5 mg/kg of either 4F-benzoyl-TN14003 or AMD3100. 2 h later peripheral blood cells were collected following by ACK lysis and transferred into C57BL/6 recipient mice that were given a lethal dosing of irradiation (900 cGy) 24 h before i.v. injection of cells. A total cell obtained from 900 or 225 microliter of blood was transferred into single recipient mouse in a total volume of 200 μl PBS. Recipient mice transferred with cells obtained from blood of untreated mice or with normal BM cells were served as controls. Survival of mice was monitored for 4 months.
Although mobilization of HPCs may be of use for short-term repopulation in a transplantation setting, HSCs are required for long-term repopulation. To assess the effect of 4F-benzoyl-TN14003 on mobilization of murine HSCs, a transplantation model was used, in which donor C57Bl/6 mice were treated with 4F-benzoyl-TN14003 or AMD3100. After 2 h, blood was collected and cells isolated from an equal volume of blood obtained from each treated group (900 or 225 microliter in different experiments) were transferred for engraftment in lethally irradiated recipient C57Bl/6 mice. Survival of the recipient mice, indicative for long-term repopulating (LTR) activity and presence of HSCs, was monitored.

[5] = system: BM cells on stromal cells (14F1.1); experiment: In vitro production of progenitors and mature cells from BM cells seeded on stromal cells (14F1.1); assay type: cell-based
Protocol: More specifically, the number of colonies was assayed by collecting the cells (10^5/plate) 4 days after treatment form the treated and control (untreated) plates, and evaluating the number of progenitor cells using a colony-forming cell assay. Burst forming units erythrocyte (BFU-E), colony forming units granulocyte-macrophage (CFU-GM), colony forming units megakaryocytes (CFU-M), and colony forming units granulocyte-erythrocyte-monocyte-macrophage (CFU-GEMM) were assayed by plating the cells in Iscove's-modified Dulbecco's Medium (IMDM) containing 1% methylcellulose, 15% FBS, 1% bovine serum albumin (BSA), 3 U/mL rh EPO, […] 2-mercaptoethanol, 2 mM L-glutamine, 50 ng/mL rmSCF, 10 ng/mL rmIL-3, […] rh Insulin, 10 ng/mL rh IL-6, and […] Human Transferrin (Methocult GF M3434; StemCell Technologies Inc.). The cultures were incubated at 37° C. in a humidified atmosphere containing 5% CO2. Seven days later, typical colonies were visually scored by morphologic criteria using a light microscope and the frequency of CFU was calculated. Staining colonies with benzidine dihydrochloride (Sigma, Israel) was used to localize hemoglobin-containing cells.

[6] = system: hematopoietic progenitor cells (HPCs); experiment: Mobilization of hematopoietic progenitor cells to the blood, colony-forming cell assay; assay type: in vivo, C57BL/6 mice; conditions: 5 mg/kg s.c. 4F-benzoyl-TN14003 or AMD3100, 2 h, G-CSF 2.5 μg s.c. twice a day for 4 days, combination 18 h after last G-CSF
[7] = system: granulocytes (GR-1 positive cells); experiment: Granulocyte (GR-1 positive) counts in blood and bone marrow in a chemotherapy model; assay type: in vivo, mice; conditions: CPM 250 mg/kg total i.p.; 4F-benzoyl-TN14003 5 mg/kg s.c., G-CSF 5 μg/mouse
Protocol: Mice received a total dose of 250 mg/kg cyclophosphamide (CPM) by two 0.25 ml intra-peritoneal injections scheduled at day 0 (150 mg/kg) and day 3 (100 mg/kg). Mice were subcutaneously treated with 0.2 ml of 4F-benzoyl-TN14003 (5 mg/kg) at the indicated time points, as detailed in FIG. 13A. Flow cytometery was used to assess the number of cells in the blood and bone marrow (BM), and distinguish between the different populations. Cells were gated according to forward scatter and side scatter to exclude dead cells and to identify granulocytes (GR-1 positive cells).
Mice received a total dose of 250 mg/kg CPM by two 0.25 ml intra-peritoneal injections scheduled at day 0 (150 mg/kg) and day 3 (100 mg/kg). Mice were subcutaneously treated with 0.2 ml of 4F-benzoyl-TN14003 (5 mg/kg) or G-CSF 5 μg/mouse or the combination of both at the indicated time points as detailed in FIG. 14A. Flow cytometery was used to assess the number of cells in the blood and bone marrow (BM) and distinguish between the different populations. Cells were gated according to forward scatter and side scatter to exclude dead cells and to determine granulocytes (GR-1 positive cells).

[8] = system: neutrophils; experiment: Chemotherapy (cyclophosphamide)-induced neutropenia model, neutrophil counts; assay type: in vivo, C57BL/6 mice; conditions: cyclophosphamide 150 + 100 mg/kg i.p. days 1 and 4, treatment s.c. days 4-7 (4F-benzoyl-TN14003 5 mg/kg)
Protocol: In the chemotherapy-induced neutropenia model, a protocol as previously described was followed (Zuluaga et al., 2006). Briefly, Female C57BL/6 mice were injected intraperitoneally with 150 and 100 mg/kg of Cyclophosphamide (CPM) on days 1 and 4, respectively. Following the treatment with CPM, mice were injected s.c. with either G-CSF […], 4F-benzoyl-TN14003 (5 mg/kg) or their combination on day 4, 5, 6 and 7. Blood samples were drawn from each mouse on day 0 and two hours after G-CSF/4F-benzoyl-TN14003 injections on days 4, 5, 6 and 7. Lysis of the erythrocyte population in the blood samples was done using ACK lysis buffer. The number of neutrophils was determined by FACS after staining the cells with anti-PE-Gr-1 antibody.
Neutropenia was induced in female C57BL/6 mice by administration of a total dose of 250 mg/kg cyclophosphamide (CPM) in two 0.5 mL intraperitoneal injections scheduled at day 1 (150 mg/kg) and day 4 (100 mg/kg). The CPM protocol caused 4 days of neutropenia (from day 4 to day 8). When mice were treated with the combination of G-CSF and 4F-benzoyl-TN14003, a significant number of neutrophils was detected in the blood on day 6, as compared to mice that were treated with CPM only or with G-CSF or 4F-benzoyl-TN14003 alone (FIG. 12).

| Molecule | MIP3α secretion [1] | MIP3α secretion ([2]; PC3-CXCR4.5 cells, ELISA) | CXCR4 dependence of induced MIP3α secretion ([2]; transfection with CXCR4-specific or control siRNA) | Activated macrophages, fold elevation of cell counts from control [3] | MNC, fold elevation of cell counts from control [3] | Neutrophils, fold elevation of cell counts from control [3] | Neutrophils, fold elevation of cell counts from control ([3]; listed as AMD31000) | Total WBC, fold elevation of cell counts from control ([3]; listed as AMD31000) | survival of lethally irradiated recipient mice ([4]; cells from 225 microliter of blood of donors given 5 mg/kg, day 33 post transplantation) | survival of lethally irradiated recipient mice ([4]; cells from 900 microliter of blood of donors given 5 mg/kg, day 11 post transplantation) | production of GR-1 and Ter119 positive cells and progenitors ([5]; stromal cells (14F1.1) seeded with BM cells, 4F-benzoyl-TN14003 10 microgram/ml, G-CSF 100 ng/ml, 4 days) | BFU-E in blood, fold elevation of cell counts from control [6] | CFU-GEMM in blood, fold elevation of cell counts from control [6] | Progenitors in blood, fold elevation of cell counts from control [6] | BFU-E in blood, fold elevation of cell counts from control ([6]; listed as AMD31000) | Total WBC, fold elevation of cell counts from control [3] | GR-1 positive cells in the blood (flow cytometry) [7] | differentiation and proliferation of BM cells on stromal cells (micrographs) ([5]; representative experiment, FIG. 17E) | number of neutrophils in blood as % of the initial number in normal (untreated) mice ([8]; day 6) | number of neutrophils in blood as % of the initial number ([8]; day 7) |
| --- | --- | --- | --- | --- | --- | --- | --- | --- | --- | --- | --- | --- | --- | --- | --- | --- | --- | --- | --- | --- |
| CXCL12: chemokine, CXCR4's only natural ligand | increased the secretion of MIP3α | increased the secretion of MIP3α | CXCR4 dependent | – | – | – | – | – | – | – | – | – | – | – | – | – | – | – | – | – |
| c1cc(CN2CCCNCCNCCCNCC2)ccc1CN1CCCNCCNCCCNCC1 [AMD3100, reference compound] | – | – | – | 6.1 fold | 3.4 fold | 8 fold | 8.0 fold | 2.9 fold | 37.5% | 73% | did not demonstrate this effect | ~30 fold | 15.5 fold | 4.2 fold | 35 fold | – | – | – | – | – |
| G-CSF: Granulocyte colony-stimulating factor (G-CSF) (Filgrastim Neupogen) (protein, UniProt P09919 31-207, looked up, N-terminal methionine) Granulocyte …: TPLGPASSLPQSFLLKCLEQVRKIQGDGAALQEKLVSECATYKLCHPEELVLLGHSLGIPWAPLSSCPSQALQLAGCLSQLHSGLFLYQGLLQALEGISPELGPTLDTLQLDVADFATTIWQQMEELGMAPALQPTQGAMPAFASAFQRRAGGVLVASHLQSFLEVSYRVLRHLAQP | – | – | – | 1.4 fold | 1.4 fold | – | – | – | – | – | – | 142 fold | 151 fold | 13.6 fold | – | 1.9 fold | mobilize GR-1 positive cells and reduce neutropenia | differentiating and proliferating | only a mild effect | not sufficient to elevate neutrophil counts to their normal level |
